Test results as given in the supplement of paper PMC5908809.

Legend:
KAI3 (IL-2 2.5 ng/mL) [1] = experiment: drug sensitivity score (DSS) (DSS units); higher = more sensitive; extreme values may be limits of the assay; conditions: 72 h
[2] = test system: normal primary NK cells, pool 1 (3 donors), resting (IL-2 0 ng/mL); experiment: as above; conditions: 72 h
[3] = test system: normal primary NK cells, pool 1 (3 donors) (IL-2 2.5 ng/mL); experiment: as above; conditions: 72 h
[4] = test system: normal primary NK cells, pool 2 (3 donors) (IL-2 2.5 ng/mL); experiment: as above; conditions: 72 h
IMC-1 (IL-2 20 ng/mL) [5] = experiment: as above; conditions: 72 h
[6] = test system: normal primary NK cells, pool 3 (3 donors) (IL-2 2.5 ng/mL); experiment: as above; conditions: 72 h
NK-YS (IL-2 2.5 ng/mL) [7] = experiment: as above; conditions: 72 h
YT (IL-2 2.5 ng/mL) [8] = experiment: as above; conditions: 72 h
NK-92 (IL-2 2.5 ng/mL) [9] = experiment: as above; conditions: 72 h
KHYG-1 (IL-2 2.5 ng/mL) [10] = experiment: as above; conditions: 72 h
NKL (IL-2 2.5 ng/mL) [11] = experiment: as above; conditions: 72 h
DERL-7 (IL-2 2.5 ng/mL) [12] = experiment: as above; conditions: 72 h
SNK-6 (IL-2 2.5 ng/mL) [13] = experiment: as above; conditions: 72 h
[14] = test system: normal NK cells expanded with K562-aAPC; experiment: as above; conditions: 72 h; IL-2 2.5 ng/mL
Method: (§1)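 Drug sensitivity and resistance testing on K562-aAPC-expanded normal NK cells: 5 concentrations (10-fold steps over a 10,000-fold range), 72 h at 37 °C, viability by CellTiter-Glo normalised to DMSO and benzethonium chloride controls; DSS from the fitted curve.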

KAI3 (IL-2 2.5 ng/mL) [15] = experiment: percent inhibition of viability; higher = more inhibition; conditions: 72 h
[16] = test system: normal primary NK cells, pool 1 (3 donors), resting (IL-2 0 ng/mL); experiment: as above; conditions: 72 h
[17] = test system: normal primary NK cells, pool 1 (3 donors) (IL-2 2.5 ng/mL); experiment: as above; conditions: 72 h
[18] = test system: normal primary NK cells, pool 2 (3 donors) (IL-2 2.5 ng/mL); experiment: as above; conditions: 72 h
IMC-1 (IL-2 20 ng/mL) [19] = experiment: as above; conditions: 72 h
[20] = test system: normal primary NK cells, pool 3 (3 donors) (IL-2 2.5 ng/mL); experiment: as above; conditions: 72 h
NK-YS (IL-2 2.5 ng/mL) [21] = experiment: as above; conditions: 72 h
YT (IL-2 2.5 ng/mL) [22] = experiment: as above; conditions: 72 h
NK-92 (IL-2 2.5 ng/mL) [23] = experiment: as above; conditions: 72 h
KHYG-1 (IL-2 2.5 ng/mL) [24] = experiment: as above; conditions: 72 h
NKL (IL-2 2.5 ng/mL) [25] = experiment: as above; conditions: 72 h
DERL-7 (IL-2 2.5 ng/mL) [26] = experiment: as above; conditions: 72 h
SNK-6 (IL-2 2.5 ng/mL) [27] = experiment: as above; conditions: 72 h
[28] = test system: normal NK cells expanded with K562-aAPC; experiment: as above; conditions: 72 h, IL-2 2.5 ng/mL
Method: as §1

C[C@@H]1CCN(C(=O)CC#N)C[C@@H]1N(C)c1ncnc2[nH]ccc12 [Tofacitinib] (max concentration tested 5000 nM)
Conditions	drug sensitivity score
DERL-7 (IL-2 2.5 ng/mL) [12]	19.1
IMC-1 (IL-2 20 ng/mL) [5]	9.8
KAI3 (IL-2 2.5 ng/mL) [1]	20.8
KHYG-1 (IL-2 2.5 ng/mL) [10]	25.1
NK-92 (IL-2 2.5 ng/mL) [9]	14.5
NK-YS (IL-2 2.5 ng/mL) [7]	13
NKL (IL-2 2.5 ng/mL) [11]	22.6
SNK-6 (IL-2 2.5 ng/mL) [13]	17.6
YT (IL-2 2.5 ng/mL) [8]	8.99
[2]	0
[3]	15.6
[4]	13.7
[6]	9.81
[14]	20.7

percent inhibition of viability [%]
Conditions	0.5 nM	5 nM	50 nM	500 nM	5000 nM
DERL-7 (IL-2 2.5 ng/mL) [26]	4.68	5.82	37.9	76.5	100
IMC-1 (IL-2 20 ng/mL) [19]	-6.11	-7.94	-16.8	34.5	92.1
KAI3 (IL-2 2.5 ng/mL) [15]	-5.21	10.5	45.3	82.7	85.5
KHYG-1 (IL-2 2.5 ng/mL) [24]	-4.2	2.4	59.4	100	98.6
NK-92 (IL-2 2.5 ng/mL) [23]	-2.4	-2.12	17.6	66.9	80.8
NK-YS (IL-2 2.5 ng/mL) [21]	-1.06	4.19	22	56.2	67.5
NKL (IL-2 2.5 ng/mL) [25]	-18.4	5	56.6	78.2	86.8
SNK-6 (IL-2 2.5 ng/mL) [27]	-3.6	10	22.4	80.2	77.1
YT (IL-2 2.5 ng/mL) [22]	-1.31	-0.82	0.63	46.5	64.1
[16]	-2.2	-5.26	-18	7.52	-1.29
[17]	-7	-4.5	19.9	68.1	69.8
[18]	-14	-8.22	19.6	60.2	67
[20]	-10.3	-4.27	6.35	48.6	60.7
[28]	0.56	-0.5	34.7	89.7	96.1

CS(=O)(=O)c1ccc(C(=O)Nc2ccc(Cl)c(-c3ccccn3)c2)c(Cl)c1 [Vismodegib] (max concentration tested 10000 nM)
Conditions	drug sensitivity score
DERL-7 (IL-2 2.5 ng/mL) [12]	2.77
IMC-1 (IL-2 20 ng/mL) [5]	0
KAI3 (IL-2 2.5 ng/mL) [1]	0
KHYG-1 (IL-2 2.5 ng/mL) [10]	0.07
NK-92 (IL-2 2.5 ng/mL) [9]	5.87
NK-YS (IL-2 2.5 ng/mL) [7]	0.2
NKL (IL-2 2.5 ng/mL) [11]	3.21
SNK-6 (IL-2 2.5 ng/mL) [13]	0
YT (IL-2 2.5 ng/mL) [8]	0.65
[2]	1.51
[3]	0
[4]	0.05
[6]	0
[14]	0

percent inhibition of viability [%]
Conditions	1 nM	10 nM	100 nM	1000 nM	10000 nM
DERL-7 (IL-2 2.5 ng/mL) [26]	5.54	5.58	5.06	6.24	36.2
IMC-1 (IL-2 20 ng/mL) [19]	-2.4	2.13	-1.82	2.66	8.93
KAI3 (IL-2 2.5 ng/mL) [15]	-6.47	-10.6	-10.8	8.7	6.77
KHYG-1 (IL-2 2.5 ng/mL) [24]	-7.27	-4.1	-4.53	-3.56	13.7
NK-92 (IL-2 2.5 ng/mL) [23]	1.83	1.49	-0.7	17.8	59.3
NK-YS (IL-2 2.5 ng/mL) [21]	-6.25	-5.83	-1.92	0.14	14.4
NKL (IL-2 2.5 ng/mL) [25]	-2.06	-5.75	8.65	9.14	39.8
SNK-6 (IL-2 2.5 ng/mL) [27]	-24.4	-21.3	-33.1	-9.73	9.74
YT (IL-2 2.5 ng/mL) [22]	-2.78	-9.59	3.13	-6.38	24.6
[16]	-4.18	4.86	12.4	12.3	11.2
[17]	-0.96	12.3	5.5	3.58	12.3
[18]	-4.51	8.63	4.94	7.5	11.8
[20]	-5.07	-0.78	8.43	-1.07	0.11
[28]	-6.55	-2.58	-4.57	6.27	3.14
